In paper PMC9689682, “Tenebrio molitor Proteins-Derived DPP-4 Inhibitory Peptides: Preparation, Identification, and Molecular Binding Mechanism” (Foods, 2022):

What was measured:
[1] = target: T1, DPP-4 (Homo sapiens, UniProt P27487); assay: DPP-4 inhibition activity assay (Gly-Pro-p-nitroanilide substrate, OD 405 nm); assay type: biochemical; settings: final concentration 1 mg/mL; n = 3; Figure 4A
T1 construct: purchased Millipore Sigma (Burlington, MA, USA)
Procedure: The inhibition of each sample on DPP-4 was assayed according to a previously described method. Briefly, 20 μL of each sample solution, 50 μL of Tris-HCl buffer (pH8.0, 100 mM), and 100 μL of substrate were mixed in a well of a 96-well plate, then incubated at 37 °C for 10 min. Afterward, the 30 μL of DPP-IV solution was added, then placed at 37 °C for 40 min incubation. Afterward, the optical density was recorded at 405 nm using a BioTek Synergy H1 microplate reader (BioTek, Winooski, VT, USA). The inhibitory effect of the samples on DPP-4 was calculated according to a previously described equation [27].

[2] = target: T1, DPP-4; settings: Bombyx mori protein-derived peptide; cited from earlier work
Text: GLP-1 and GIP are two crucial incretins, which have mainly contributed to the insulin response after meal intake. Suppressing the activity of DPP-4 can increase the level of active incretins, thereby decreasing blood glucose in diabetic patients. Based on the consideration of the adverse effects caused by the chemically synthesized inhibitors, some peptides with inhibitory effects on DPP-4 activity obtained from natural proteins, including milk, egg, grain, edible insects, and aquatic proteins have been widely reported. In the current study, the flavourzyme effectivel ... || It has been reported that the length and size of peptides influence their inhibitory activity against DPP-4.

T1 sequence (P27487 whole entry): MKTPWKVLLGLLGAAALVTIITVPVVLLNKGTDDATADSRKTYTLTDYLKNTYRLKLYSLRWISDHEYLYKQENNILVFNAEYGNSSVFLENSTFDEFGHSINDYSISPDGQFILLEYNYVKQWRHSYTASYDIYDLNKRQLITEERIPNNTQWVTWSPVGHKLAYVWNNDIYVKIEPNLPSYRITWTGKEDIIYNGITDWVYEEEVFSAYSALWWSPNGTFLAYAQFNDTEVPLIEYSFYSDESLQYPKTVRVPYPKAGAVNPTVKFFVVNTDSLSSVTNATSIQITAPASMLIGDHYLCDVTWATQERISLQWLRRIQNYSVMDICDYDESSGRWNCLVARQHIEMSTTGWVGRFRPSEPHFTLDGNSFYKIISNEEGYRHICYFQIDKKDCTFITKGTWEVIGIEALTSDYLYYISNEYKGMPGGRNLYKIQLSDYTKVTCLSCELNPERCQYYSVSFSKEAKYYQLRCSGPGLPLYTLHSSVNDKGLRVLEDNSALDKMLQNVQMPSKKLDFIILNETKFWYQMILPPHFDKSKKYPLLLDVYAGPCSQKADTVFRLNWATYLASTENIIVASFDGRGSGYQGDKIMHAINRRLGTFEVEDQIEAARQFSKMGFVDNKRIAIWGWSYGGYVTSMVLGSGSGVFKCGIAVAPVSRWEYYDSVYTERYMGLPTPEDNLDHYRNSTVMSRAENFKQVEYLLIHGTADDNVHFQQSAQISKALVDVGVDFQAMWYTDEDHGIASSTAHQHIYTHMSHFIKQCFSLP

inhibitory effect of the synthesized peptides on DPP-4 activity (in words) [1]	Substance	IC50 value against DPP-4 [2]
weak inhibitory activity	NEAYFGFPR [synthesized peptide identified from T. molitor flavourzyme hydrolysate; origin Hexamerin 1]	–
–	LPAVTIR	148 µg/mL
weak inhibitory activity	GLQFPTRPNF [synthesized peptide; origin 86 kDa early-staged encapsulation inducing protein]	–
weak inhibitory activity	SNGLPFPTRP [synthesized peptide identified from T. molitor flavourzyme hydrolysate; origin Hexamerin 1]	–
